From patent publication US7910611B2, “Therapeutic agent for restenosis” (Kyowa Hakko Kirin Co., Ltd., priority 2005, dated 2011) come the findings set out here.

Where a name gives a salt, the structure may show the parent alone.

Data set [1] relates to normal human aortic smooth muscle cells. The data set can be described thus: Cell growth inhibition tests against human vascular smooth muscle cells (XTT). Type of data set: cell-based. The note with it: for GI50: read-out: growth inhibitory activity in terms of the GI50 value (concentration of 50% growth inhibition), cultured 72 hours with test compound, XTT, absorbance at 490 nm. As to the method: Cell Growth Inhibition Tests Against Human Vascular Smooth Muscle Cells
As human vascular smooth muscle cells, normal human aortic smooth muscle cells (Cambrex, catalog No. C-2571) were used. HuMedia-SB2 basal medium (Kurabo Industries, Ltd., catalog No. KS-2150S) containing 5% fetal bovine serum (Kurabo Industries, Ltd., catalog No. KS-6150), 0.5 ng/mL human recombinant epidermal growth factor (Kurabo Industries, Ltd., catalog No. KS-6150), 2 ng/mL human recombinant basic fibroblast growth factor (Kurabo Industries, Ltd., catalog No. KS-6150), 5 μg/mL insulin (Kurabo Industries, Ltd., catalog number KS-6150), 50 μg/mL gentamycin (Kurabo Industries, Ltd., catalog No. KS-6150), and 50 ng/mL amphotericin B (Kurabo Industries, Ltd., catalog No. KS-6150) was used for cell culture. The cells were cultured at 37° C. in a 5% carbon dioxide atmosphere.
The normal human aortic smooth muscle cells (1000 cells/well) were seeded in each well of 96-well plates (Nunc, catalog No. 167008), and cultured overnight. Test compounds diluted stepwise were added, and the cells were further cultured for 72 hours (final volume: 100 μL/well). Fifty μL XTT labeling mixture of Cell Proliferation Kit II (XTT) (Roche Diagnostics, catalog No. 1465015) was added to each well, and the plates were incubated at 37° C. After 4 hours, absorbance at 490 nm (reference wavelength: 655 nm) was measured with a plate reader (Molecular Device, SpectraMax 340PC^384). Growth ratios of the cells in the wells treated with the test compound was calculated based on the growth ratio of the cells in the control well treated with solvent (dimethyl sulfoxide (DMSO)) for 72 hours, which was defined as 100%.
(In general: Formazan colour is commonly taken as a measure of viable cells.)

As for `CCC(=O)N1N=C(N2CCCC2=O)SC1(CCNS(C)(=O)=O)c1ccccc1` (single isomer, unassigned; (-)) [Compound e, (−)-N-{2-[5-(2-Oxopyrrolidin-1-yl)-2-phenyl-3-propionyl-2,3-dihydro-1,3,4-thiadiazol-2-yl]ethyl}methanesulfonamide], the melting point was 188 to 191 °C. Further, the GI50 in data set [1] was below 10 µM.
On to `CCC(=O)N1N=C(NC(=O)C(C)(C)C)SC1(CCNS(C)(=O)=O)c1ccccc1` (single isomer, unassigned; (-)) [Compound b, (−)-N-[5-(2-Methanesulfonylaminoethyl)-5-phenyl-4-propionyl-4,5-dihydro-1,3,4-thiadiazol-2-yl]-2,2-dimethylpropanamide], for which the GI50 in data set [1] was below 10 µM.
Same read-out and setting: under `CCNCCS(=O)(=O)NCCC1(c2ccccc2)SC(NC(=O)C(C)(C)C)=NN1C(=O)C(C)(C)C` (stereo not shown) [Compound i, N-{4-(2,2-Dimethylpropionyl)-5-[2-(2-ethylaminoethanesulfonylamino)-ethyl]-5-phenyl-4,5-dihydro-1,3,4-thiadiazol-2-yl}-2,2-dimethylpropanamide] stands below 10 µM.
For the molecule `CN(C)CCS(=O)(=O)NCC1(c2ccccc2)SC(NC(=O)C(C)(C)C)=NN1C(=O)C(C)(C)C` (single isomer, unassigned; (-)) [Compound m, (−)-N-[5-(2-Dimethylaminoethanesulfonylaminomethyl)-4-(2,2-dimethylpropionyl)-5-phenyl-4,5-dihydro-1,3,4-thiadiazol-2-yl]-2,2-dimethylpropanamide], the melting point is 101 to 104 °C. Further, the “inhibitory activity compared with the corresponding racemic mixture (Compound 12)” value in data set [1] (optically active compound versus racemic mixture) is recorded as “more potent inhibitory activities”. In data set [1], the GI50 is below 10 µM.
As for `CC(C)(C)C(=O)NC1=NN(C(=O)C(C)(C)C)C(CN)(c2ccccc2)S1` (stereo not shown) [Compound j, N-[5-Aminomethyl-4-(2,2-dimethylpropionyl)-5-phenyl-4,5-dihydro-1,3,4-thiadiazol-2-yl]-2,2-dimethylpropanamide], the GI50 in data set [1] was below 10 µM.
For the molecule `CC(=O)N1N=C(NC(=O)C(C)(C)C)SC1(CCNS(C)(=O)=O)c1ccccc1` (single isomer, unassigned; (-)) [Compound f, (−)-N-[4-Acetyl-5-(2-methanesulfonylaminoethyl)-5-phenyl-4,5-dihydro-1,3,4-thiadiazol-2-yl]-2,2-dimethylpropanamide], the melting point lay in the range of 187 to 190 °C.
`CC(C)(C)C(=O)NC1=NN(C(=O)C(C)(C)C)C(CCNS(C)(=O)=O)(c2ccccc2)S1` (single isomer, unassigned; (-)) [Compound a, (−)-N-[4-(2,2-Dimethylpropionyl)-5-(2-methanesulfonylaminoethyl)-5-phenyl-4,5-dihydro-1,3,4-thiadiazol-2-yl]-2,2-dimethylpropanamide]: the GI50 in data set [1] was below 10 µM.
Molecule `CC(C)(C)C(=O)NC1=NN(C(=O)C(C)(C)C)C(CN)(c2ccccc2)S1` (stereo not shown) (as salt: hydrochloride) [Compound j, N-[5-Aminomethyl-4-(2,2-dimethylpropionyl)-5-phenyl-4,5-dihydro-1,3,4-thiadiazol-2-yl]-2,2-dimethylpropanamide] displayed a melting point of 175 to 182 °C.
Turning to `CC(C)C(=O)N1N=C(NC(=O)C(C)(C)C)SC1(CCNS(C)(=O)=O)c1ccccc1` (single isomer, unassigned; (-)) [Compound d, (−)-N-[4-Isobutyryl-5-(2-methanesulfonylaminoethyl)-5-phenyl-4,5-dihydro-1,3,4-thia-diazol-2-yl]-2,2-dimethylpropanamide], the GI50 in data set [1] is below 10 µM.
The same measure, in the same setting: the same measure for `CC(C)(C)C(=O)NC1=NN(C(=O)C(C)(C)C)C(CCCC(=O)NCCO)(c2ccccc2)S1` (stereo not shown) [Compound o, 4-[3-(2,2-Dimethylpropionyl)-5-(2,2-dimethylpropionylamino)-2-phenyl-2,3-dihydro-1,3,4-thiadiazol-2-yl]-N-(2-hydroxyethyl)butanamide]: below 10 µM.
`CC(=O)N1N=C(N2CCCC2=O)SC1(CCNS(C)(=O)=O)c1ccccc1` (stereo not shown) [Compound g, N-{2-[3-Acetyl-5-(2-oxopyrrolidin-1-yl)-2-phenyl-2,3-dihydro-1,3,4-thiadiazol-2-yl]-ethyl}methanesulfonamide] displayed a melting point of 137 to 140 °C.
Turning to `CN(C)CCCS(=O)(=O)NCC1(c2ccccc2)SC(NC(=O)C(C)(C)C)=NN1C(=O)C(C)(C)C` (single isomer, unassigned; (-)) [Compound n, (−)-N-[5-(3-Dimethylaminopropanesulfonylaminomethyl)-4-(2,2-dimethylpropionyl)-5-phenyl-4,5-dihydro-1,3,4-thiadiazol-2-yl]-2,2-dimethylpropanamide], the melting point is 92 to 95 °C. The GI50 in data set [1] was below 10 µM.
In the case of `CC(C)(C)C(=O)N1N=C(N2CCCC2=O)SC1(CCNS(C)(=O)=O)c1ccccc1` (single isomer, unassigned; (-)) [Compound c, (−)-N-{2-[3-(2,2-Dimethylpropionyl)-5-(2-oxopyrrolidin-1-yl)-2-phenyl-2,3-dihydro-1,3,4-thiadiazol-2-yl]ethyl}methanesulfonamide], the melting point lay within 107 to 110 °C.
As to `CCNCCS(=O)(=O)NCC1(c2ccccc2)SC(NC(=O)C(C)(C)C)=NN1C(=O)C(C)(C)C` (single isomer, unassigned; (-)) [Compound l, (−)-N-[4-(2,2-Dimethylpropionyl)-5-(2-ethylaminoethanesulfonylaminomethyl)-5-phenyl-4,5-dihydro-1,3,4-thiadiazol-2-yl]-2,2-dimethylpropanamide], the GI50 in data set [1] was below 10 µM.
Same read-out and setting: the same measure for `CC(C)(C)C(=O)NC1=NN(C(=O)C(C)(C)C)C(CNS(=O)(=O)CCSCCN)(c2ccccc2)S1` (stereo not shown) [Compound 24, N-{5-[2-(2-Aminoethylsulfanyl)ethanesulfonylaminomethyl]-4-(2,2-dimethyl-propionyl)-5-phenyl-4,5-dihydro[1,3,4]thiadiazol-2-yl}-2,2-dimethyl-propionamide]: below 10 µM.
As for `C=CS(=O)(=O)NCC1(c2ccccc2)SC(NC(=O)C(C)(C)C)=NN1C(=O)C(C)(C)C` (stereo not shown) [Compound k, N-[4-(2,2-Dimethylpropionyl)-5-ethenesulfonylaminomethyl-5-phenyl-4,5-dihydro-1,3,4-thiadiazol-2-yl]-2,2-dimethylpropanamide], the GI50 in data set [1] was below 10 µM.
Molecule `CC(=O)N1N=C(N2CCCCC2=O)SC1(CCNS(C)(=O)=O)c1ccccc1` (single isomer, unassigned; (-)) [Compound h, (−)-N-{2-[3-Acetyl-5-(2-oxopiperidino)-2-phenyl-2,3-dihydro-1,3,4-thiadiazol-2-yl]ethyl}methanesulfonamide] gave a melting point of 169 to 171 °C. Further, in data set [1], the GI50 was below 10 µM.

As usually defined, the melting point is the temperature of the solid-liquid transition.
